Reference: article PMC10287695, “Non-covalent inhibitors of thioredoxin glutathione reductase with schistosomicidal activity in vivo” (Nature Communications, 2023)
Several values for one entry are separate records, joined by “and”; a condition that tells them apart may be missing. Equal values may be shown once.

Tested on: TGR in newly transformed schistosomula (NTS)
Assay: TGR inhibition in NTS with TRFS-Green fluorescent probe;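 also: untreated reference is NTS exposed to TRFS-Green probe alone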
Type: cell-based, S. mansoni
Details: NTS
Procedure: TGR inhibition in NTS was assessed using a fluorescent probe TRFS-Green (Medchemexpress)[43]. NTS prepared as previously described and cultured in M199 supplemented with 5.5 mM D-glucose, penicillin-streptomycin and 5% heat inactivated fetal bovine serum were incubated at 37 °C in a clear bottom flat well plate in a 5% CO2 incubator overnight. […] NTS were further treated with TRFS-Green (10 µM) for additional 4 h and rinsed with M199 medium to remove residual TRFS-Green. Fluorescence images were obtained using Keyence BZ-X800. The quantification of fluorescence intensity upon the uptake of TRFS-Green by NTS was performed by a fluorescent microplate imager (BioTek Cytation3) (excitation, 438 nm; emission, 538 nm) hourly for 5 h and after 24 h.

In the case of `C[C@@H]1[C@H]2C[C@@H](C[C@H]1NCc1nc3ccccc3n1C1CCCCCC1)C2(C)C` [C8 (9VP173)], the “TGR inhibition visualized by TRFS-Green, Average” value (1hr, 5 µM) is reported as 11538.5, the “TGR inhibition visualized by TRFS-Green, single replicate” value (1hr, 5 µM) is reported as 11535 and 11542 and the “TGR inhibition visualized by TRFS-Green, Average” value (1hr, 15 µM) is reported as 11107.5. For the same molecule, the “TGR inhibition visualized by TRFS-Green, single replicate” value (1hr, 15 µM) was 11094 and 11121, the “TGR inhibition visualized by TRFS-Green, Average” value (1hr, 30 µM) was 7413.5 and the “TGR inhibition visualized by TRFS-Green, single replicate” value (1hr, 30 µM) was 7434 and 7393. The “TGR inhibition visualized by TRFS-Green, Average” value (2hr, 5 µM) was 18549, the “TGR inhibition visualized by TRFS-Green, single replicate” value (2hr, 5 µM) was 18864 and 18234 and the “TGR inhibition visualized by TRFS-Green, Average” value (2hr, 15 µM) was 17855.5. For the same molecule, the “TGR inhibition visualized by TRFS-Green, single replicate” value (2hr, 15 µM) was 17877 and 17834, the “TGR inhibition visualized by TRFS-Green, Average” value (2hr, 30 µM) was 9154.5 and the “TGR inhibition visualized by TRFS-Green, single replicate” value (2hr, 30 µM) was 9096 and 9213. The “TGR inhibition visualized by TRFS-Green, Average” value (3hr, 5 µM) was 28617, the “TGR inhibition visualized by TRFS-Green, single replicate” value (3hr, 5 µM) was 28491 and 28743 and the “TGR inhibition visualized by TRFS-Green, Average” value (3hr, 15 µM) was 26316. The “TGR inhibition visualized by TRFS-Green, single replicate” value (3hr, 15 µM) was 26509 and 26123, the “TGR inhibition visualized by TRFS-Green, Average” value (3hr, 30 µM) was 12119 and the “TGR inhibition visualized by TRFS-Green, single replicate” value (3hr, 30 µM) was 12004 and 12234. For the same molecule, the “TGR inhibition visualized by TRFS-Green, Average” value (4hr, 5 µM) was 29563.5, the “TGR inhibition visualized by TRFS-Green, single replicate” value (4hr, 5 µM) was 29504 and 29623 and the “TGR inhibition visualized by TRFS-Green, Average” value (4hr, 15 µM) was 26307.5. For the same molecule, the “TGR inhibition visualized by TRFS-Green, single replicate” value (4hr, 15 µM) was 26632 and 25983, the “TGR inhibition visualized by TRFS-Green, Average” value (4hr, 30 µM) was 10530.5 and the “TGR inhibition visualized by TRFS-Green, single replicate” value (4hr, 30 µM) was 10830 and 10231. The “TGR inhibition visualized by TRFS-Green, Average” value (5hr, 5 µM) was 37986, the “TGR inhibition visualized by TRFS-Green, single replicate” value (5hr, 5 µM) was 37989 and 37983 and the “TGR inhibition visualized by TRFS-Green, Average” value (5hr, 15 µM) was 27117. The “TGR inhibition visualized by TRFS-Green, single replicate” value (5hr, 15 µM) was 26702 and 27532, the “TGR inhibition visualized by TRFS-Green, Average” value (5hr, 30 µM) was 12834 and the “TGR inhibition visualized by TRFS-Green, single replicate” value (5hr, 30 µM) was 12855 and 12813. For the same molecule, the “TGR inhibition visualized by TRFS-Green, Average” value (24hr, 5 µM) was 47666, the “TGR inhibition visualized by TRFS-Green, single replicate” value (24hr, 5 µM) was 46698 and 48634 and the “TGR inhibition visualized by TRFS-Green, Average” value (24hr, 15 µM) was 29478.5. For the same molecule, the “TGR inhibition visualized by TRFS-Green, single replicate” value (24hr, 15 µM) was 29985 and 28972, the “TGR inhibition visualized by TRFS-Green, Average” value (24hr, 30 µM) was 14283.5 and the “TGR inhibition visualized by TRFS-Green, single replicate” value (24hr, 30 µM) was 14485 and 14082.
With `C[C@@H]1[C@H]2C[C@@H](C[C@H]1NCc1nc3ccccc3n1C)C2(C)C` [C12 (8VP51)] the “TGR inhibition visualized by TRFS-Green, Average” value (1hr, 5 µM) was 11939.5, the “TGR inhibition visualized by TRFS-Green, single replicate” value (1hr, 5 µM) was 11982 and 11897 and the “TGR inhibition visualized by TRFS-Green, Average” value (1hr, 15 µM) was 10673. The “TGR inhibition visualized by TRFS-Green, single replicate” value (1hr, 15 µM) was 10612 and 10734, the “TGR inhibition visualized by TRFS-Green, Average” value (1hr, 30 µM) was 10618.5 and the “TGR inhibition visualized by TRFS-Green, single replicate” value (1hr, 30 µM) was 10903 and 10334. The “TGR inhibition visualized by TRFS-Green, Average” value (2hr, 5 µM) was 23845.5, the “TGR inhibition visualized by TRFS-Green, single replicate” value (2hr, 5 µM) was 23846 and 23845 and the “TGR inhibition visualized by TRFS-Green, Average” value (2hr, 15 µM) was 20564.5. The “TGR inhibition visualized by TRFS-Green, single replicate” value (2hr, 15 µM) was 20516 and 20613, the “TGR inhibition visualized by TRFS-Green, Average” value (2hr, 30 µM) was 19325.5 and the “TGR inhibition visualized by TRFS-Green, single replicate” value (2hr, 30 µM) was 19387 and 19264. The “TGR inhibition visualized by TRFS-Green, Average” value (3hr, 5 µM) was 33943, the “TGR inhibition visualized by TRFS-Green, single replicate” value (3hr, 5 µM) was 33973 and 33913 and the “TGR inhibition visualized by TRFS-Green, Average” value (3hr, 15 µM) was 30062. The “TGR inhibition visualized by TRFS-Green, single replicate” value (3hr, 15 µM) was 30013 and 30111, the “TGR inhibition visualized by TRFS-Green, Average” value (3hr, 30 µM) was 28073.5 and the “TGR inhibition visualized by TRFS-Green, single replicate” value (3hr, 30 µM) was 28013 and 28134. For the same molecule, the “TGR inhibition visualized by TRFS-Green, Average” value (4hr, 5 µM) was 35461, the “TGR inhibition visualized by TRFS-Green, single replicate” value (4hr, 5 µM) was 35481 and 35441 and the “TGR inhibition visualized by TRFS-Green, Average” value (4hr, 15 µM) was 33991.5. For the same molecule, the “TGR inhibition visualized by TRFS-Green, single replicate” value (4hr, 15 µM) was 33999 and 33984, the “TGR inhibition visualized by TRFS-Green, Average” value (4hr, 30 µM) was 32914 and the “TGR inhibition visualized by TRFS-Green, single replicate” value (4hr, 30 µM) was 32993 and 32835. For the same molecule, the “TGR inhibition visualized by TRFS-Green, Average” value (5hr, 5 µM) was 41567.5, the “TGR inhibition visualized by TRFS-Green, single replicate” value (5hr, 5 µM) was 41048 and 42087 and the “TGR inhibition visualized by TRFS-Green, Average” value (5hr, 15 µM) was 38445. The “TGR inhibition visualized by TRFS-Green, single replicate” value (5hr, 15 µM) was 39026 and 37864, the “TGR inhibition visualized by TRFS-Green, Average” value (5hr, 30 µM) was 33178.5 and the “TGR inhibition visualized by TRFS-Green, single replicate” value (5hr, 30 µM) was 33374 and 32983. For the same molecule, the “TGR inhibition visualized by TRFS-Green, Average” value (24hr, 5 µM) was 78091, the “TGR inhibition visualized by TRFS-Green, single replicate” value (24hr, 5 µM) was 78082 and 78100 and the “TGR inhibition visualized by TRFS-Green, Average” value (24hr, 15 µM) was 70233. For the same molecule, the “TGR inhibition visualized by TRFS-Green, single replicate” value (24hr, 15 µM) was 70452 and 70014, the “TGR inhibition visualized by TRFS-Green, Average” value (24hr, 30 µM) was 60492.5 and the “TGR inhibition visualized by TRFS-Green, single replicate” value (24hr, 30 µM) was 60864 and 60121.
